# Entries after “also recorded” stand apart in the source; their conditions may differ.
# Tests used:
# Assay type in all cases: in vivo
# [1] = test system: patients who underwent percutaneous coronary intervention (PCI); assay: Maximum periprocedural CK-MB in patients with adjunctive platelet aggregation inhibitor (study data of Example 1 re-examined); details: adjunctive ASA 82 or 325 mg, eptifibatide, or clopidogrel 75 or 300 mg
# Protocol: Study end points and definitions: The primary objective of the study was to evaluate the feasibility of treatment with P5P as a cardioprotective agent in high-risk elective PCI. The primary end point of infarct size was evaluated by the trapezoidal rule (Press W H, Teukolsky S A, Vetterling W T, Flannery B P. Numerical Recipes. Cambridge, UK: Cambridge University Press, 1994:127-133) using serial CK-MB enzyme measures performed at baseline and every 6 hours for 24 hours beginning immediately before initiation of PCI. The occurrence of myocardial ischemia within 24 hours after PCI was assessed as a secondary end point using continuous 12-lead electrocardiographic monitoring (Northeast Monitoring, Boston, Mass.). […] Area under the curve ST-segment deviation was measured from the onset of the first to the last contrast injection. […]
# [2] = test system: patients who underwent percutaneous coronary intervention (PCI); assay: Periprocedural cardiac markers (serial CK-MB, troponin T) after high-risk elective PCI, P5P vs placebo
# Source text: (§1) Methods—Study Overview: 60 patients who underwent percutaneous coronary intervention (PCI) at 4 centers were randomized in a 2:1 double-blinded fashion to treatment with P5P or placebo. Inclusion criteria required prior determination for non-urgent PCI of a single-vessel lesion(s) and identification of ≧1 of the following clinical characteristics determining high risk for procedural-related ischemic complications (Califf R M, Abdelmeguid A E, Kuntz R E, Popma J J, Davidson C J, Cohen E A, Kleiman N S, Mahaffey K W, Topol E J, Pepine C J, et al. Myonecrosis after revascularization procedures. J Am Coll Cardiol 1998; 31:241-251; The ESPRIT Investigators. Novel dosing regimen of eptifibatide in planned coronary stent implantation: a randomised, placebo-controlled trial. Lancet 2000; 356:2037-2044): presence of an acute coronary syndrome (chest pain within 48 hours of PCI), recent AMI (≦7 days), diminished epicardial blood flow, angiographic thrombus, ejection fraction ≦30%, or vein graft lesion. In addition to any general contraindication to the PCI procedure or standard concomitant therapies, major exclusion criteria were creatine kinase (CK-MB) elevation above the upper limit of normal immediately before PCI, electrocardiographic evidence of atrial fibrillation or left bundle branch block, or evidence of any clinically significant abnormal laboratory finding (transaminases, bilirubin, or alkaline phosphatase >1.5 times the upper limit of normal or serum creatinine >1.8 mg/dl). Patients with elevated troponin measurements were permitted in the study provided that the peak troponin value was reported >24 hours before scheduled PCI, with documentation of a decreasing value before revascularization. After providing informed consent, patients randomized to treatment with P5P were administered enteric-coated P5P as a 10 mg/kg oral dose ≧4 hours before PCI followed by 2 daily doses of 5 mg/kg orally for 14 days. Compliance and reasons for discontinued treatments were recorded for all patients.
# (§2) Study end points and definitions: The primary objective of the study was to evaluate the feasibility of treatment with P5P as a cardioprotective agent in high-risk elective PCI. The primary end point of infarct size was evaluated by the trapezoidal rule (Press W H, Teukolsky S A, Vetterling W T, Flannery B P. Numerical Recipes. Cambridge, UK: Cambridge University Press, 1994:127-133) using serial CK-MB enzyme measures performed at baseline and every 6 hours for 24 hours beginning immediately before initiation of PCI. The occurrence of myocardial ischemia within 24 hours after PCI was assessed as a secondary end point using continuous 12-lead electrocardiographic monitoring (Northeast Monitoring, Boston, Mass.). Evidence of periprocedural ischemia was defined as ST-segment depression of >100 μV within a 60-minute period of PCI, lasting ≧1 minute and separated from other episodes by ≧1 minute. Area under the curve ST-segment deviation was measured from the onset of the first to the last contrast injection. All cardiac markers and ST-segment monitoring data were analyzed by core laboratories blinded to treatment assignment (University of Maryland School of Medicine, Baltimore, Md.; Duke Ischemia Monitoring Laboratory, Durham, N.C.). […]
# [3] = test system: patients who underwent percutaneous coronary intervention (PCI); assay: 30-day composite and individual clinical event rates after PCI; details: 30 days
# Source text: Methods—Study Overview: 60 patients who underwent percutaneous coronary intervention (PCI) at 4 centers were randomized in a 2:1 double-blinded fashion to treatment with P5P or placebo. Inclusion criteria required prior determination for non-urgent PCI of a single-vessel lesion(s) and identification of ≧1 of the following clinical characteristics determining high risk for procedural-related ischemic complications (Califf R M, Abdelmeguid A E, Kuntz R E, Popma J J, Davidson C J, Cohen E A, Kleiman N S, Mahaffey K W, Topol E J, Pepine C J, et al. Myonecrosis after revascularization procedures. J Am Coll Cardiol 1998; 31:241-251; The ESPRIT Investigators. Novel dosing regimen of eptifibatide in planned coronary stent implantation: a randomised, placebo-controlled trial. Lancet 2000; 356:2037-2044): presence of an acute coronary syndrome (chest pain within 48 hours of PCI), recent AMI (≦7 days), diminished epicardial blood flow, angiographic thrombus, ejection fraction ≦30%, or vein graft lesion. […] Compliance and reasons for discontinued treatments were recorded for all patients.
# as §2, with “Evidence of periprocedural ischemia was defined as ST-segment depression of >100 μV within a 60-minute period of PCI, lasting ≧1 minute and separated from other episodes by ≧1 minute.” left out, “injection.” for “injection. All cardiac markers and ST-segment monitoring data were analyzed by core laboratories blinded to treatment assignment (University of Maryland School of Medicine, Baltimore, Md.; Duke Ischemia Monitoring Laboratory, Durham, N.C.).”
# [4] = test system: patients who underwent percutaneous coronary intervention (PCI); assay: 24-h continuous 12-lead electrocardiographic ST monitoring after PCI
# Protocol: Methods—Study Overview: 60 patients who underwent percutaneous coronary intervention (PCI) at 4 centers were randomized in a 2:1 double-blinded fashion to treatment with P5P or placebo. […] Compliance and reasons for discontinued treatments were recorded for all patients.
# as §2, with “Evidence of periprocedural ischemia was defined as ST-segment depression of >100 μV within a 60-minute period of PCI, lasting ≧1 minute and separated from other episodes by ≧1 minute.” left out
# [5] = test system: patients who underwent percutaneous coronary intervention (PCI); assay: Clinical safety (bleeding, transfusion, chemistries, coagulation, discontinuation)
# Source text: as §1, §2
# [6] = test system: patients who underwent percutaneous coronary intervention (PCI); assay: Procedural and angiographic results (investigator-reported)
# Source text: as §1
# Except for a higher incidence of reduced epicardial flow among control patients, baseline angiographic and procedural characteristics also appeared similar between treatment groups (Table 1). Administration of P5P or placebo occurred an average of 6.1 and 8.4 hours before PCI, respectively. Stent implantation was performed in 100% and 97.3% of the placebo and P5P treatment groups, respectively. Only 1 vein graft intervention was performed using distal embolic protection. Although the right coronary artery was most commonly treated in both groups, fewer patients treated with placebo underwent revascularization of a saphenous vein graft (Table 2). Procedural angiographic complications (e.g., major dissection, abrupt vessel closure) were infrequent (Table 2).
compound,measurement,setting,value
"CC(=O)Oc1ccccc1C(=O)O [ASA + placebo, acetylsalicylic acid]",CK-MB max (mean),[1],3.41 ng/mL
"Cc1ncc(COP(=O)(O)O)c(C=O)c1O [P5P, pyridoxal-5-phosphate]",maximum / peak periprocedural CK-MB level versus placebo,[2]; P5P vs placebo,significantly lower; also recorded: significant decrease
same,Time to peak CK-MB,[2]; median (interquartile range),"11.0 (0-18.0), 36 h"
same,change in troponin T,"[2]; median (interquartile range), baseline to within 24 h after PCI","0 (0-0.07), 36 ng/ml"
same,Area under the curve CK-MB (periprocedural infarct size),"[2]; median (interquartile range), enteric-coated P5P 10 mg/kg oral ≧4 h before PCI, then 5 mg/kg twice daily 14 days, CK-MB every 6 h for 24 h","18.6 (10.2-34.5), 35 ng/ml"
same,Peak CK-MB,"[2]; median (interquartile range), periprocedural","1.1 (0.5-2.4), 39 ng/ml"
same,30-day deaths,[3],no deaths
same,"30-day composite adverse event rate (death, nonfatal AMI, new and/or worsening heart failure, or recurrent ischemia)",[3]; p=1.0 vs placebo,17.9%
same,30-day nonfatal AMI,[3]; p=1.0 vs placebo,12.8%
same,Area under the curve ST deviation,"[4]; median (interquartile range), 24-h continuous ST monitoring","1349 (951-2.263), 35 μV-min"
same,Any post PCI ischemia,"[4]; percent of patients, within 24 h after PCI",14.7-34%
same,abnormalities of routine chemistries or coagulation studies versus placebo,[5]; at 7 and 30 days,no apparent differences
same,safety issues related to treatment,"[5]; human, in vivo",No safety issues
same,need for blood product transfusion,[5]; p=0.26 vs placebo,2.5%
same,major bleeding,[5]; p=0.27 vs placebo,2.8%
same,patients discontinued drug therapy before completion of the prescribed 2 weeks,[5]; p=0.77 vs placebo,30.8%
same,TIMI flow final 0/1,"[6]; after PCI, n = 37",0 number (percent)
same,TIMI flow final 2,"[6]; after PCI, n = 37",0 number (percent)
same,TIMI flow final 3,"[6]; after PCI, n = 37",37 (100) number (percent)
same,Diameter stenosis final,"[6]; median (interquartile range), after PCI",0 (0-0) %
same,Procedural complications: Abrupt closure,[6]; n = 37,0 number (percent)
same,Procedural complications: Distal embolization,[6]; n = 37,0 number (percent)
same,Procedural complications: Major dissection,[6]; n = 37,1 (3) number (percent)
same,Procedural complications: No reflow,[6]; n = 37,0 number (percent)
same,Procedural complications: None,[6]; n = 37,35 (95) number (percent)
same,Procedural complications: Side branch closure,[6]; n = 37,1 (3) number (percent)
same,Procedural complications: Thrombus formation,[6]; n = 37,0 number (percent)
eptifibatide [Eptifibatide + placebo],CK-MB max (mean),[1],3.40 ng/mL
"COC(=O)[C@H](c1ccccc1Cl)N1CCc2sccc2C1 [Clopidogrel + placebo, clopidogrel]",CK-MB max (mean),[1],3.41 ng/mL

# — US20060019929A1, “Combination therapies employing platelet aggregation drugs” (priority 2004, published 2006)
